According to patent publication US11738053B2, “Methods and compositions for treating chronic granulomatous disease” (THE BOARD OF REGENTS OF THE UNIVERSITY OF TEXAS SYSTEM, priority 2016, dated 2023):

B1: gp91^phox(T196F): super-active variant of gp91^phox in which residue 196 is mutated from threonine to phenylalanine (protein, UniProt P04839 2-570, looked up, variant T196F)
NADPH oxidase 2: GNWAVNEGLSIFVILVWLGLNVFLFVWYYRVYDIPPKFFYTRKLLGSALALARAPAACLNFNCMLILLPVCRNLLSFLRGSSACCSTRVRRQLDRNLTFHKMVAWMIALHSAIHTIAHLFNVEWCVNARVNNSDPYSVALSELGDRQNESYLNFARKRIKNPEGGLYLAVTLLAGITGVVITLCLILIITSSTKFIRRSYFEVFWYTHHLFVIFFIGLAIHGAERIVRGQTAESLAVHNITVCEQKISEWGKIKECPIPQFAGNPPMTWKWIVGPMFLYLCERLVRFWRSQQKVVITKVVTHPFKTIELQMKKKGFKMEVGQYIFVKCPKVSKLEWHPFTLTSAPEEDFFSIHIRIVGDWTEGLFNACGCDKQEFQDAWKLPKIAVDGPFGTASEDVFSYEVVMLVGAGIGVTPFASILKSVWYKYCNNATNLKLKKIYFYWLCRDTHAFEWFADLLQLLESQMQERNNAGFLSYNIYLTGWDESQANHFAVHHDEEKDVITGLKQKTLYGRPNWDNEFKTIASQHPNTRIGVFLCGPEALAETLSKQSISNSESGPRGVHFIFNKENF

Columns and labels:
[1] = without irradiation and chemotherapy; cited from earlier work
[2] = system: NADPH oxidase in K562 cells; assay: Superoxide generation (Diogenes luminescence) in K562 cells reconstituted with gp91^phox vectors; format: cell-based; settings: K562 cells stably expressing human p47^phox and p67^phox, transfected 48 h before measurement
Procedure: FIG. 15. The gp91^phox (T196F) mutant is superactive compared with wild-type. A cellular luminescence enhancement system for superoxide detection (Diogenes, National Diagnostics) was used. Human p47^phox and p67^phox stably expressing K562 cells were transfected with either wild-type human gp91^phox vector, gp91^phox (T196F) vector, or empty vector pcDNA 3.1 48 h before measurement. K562 cells constitutively express p22^phox and Rac. The experiment shown is representative of 3 studies.
In a structure/function study of gp91^phox, a super-active variant of gp91^phox (T196F) was generated in which residue 196 is mutated from threonine to phenylalanine (FIG. 15). PMA-stimulated superoxide generation was 7-fold greater when gp91^phox(T196F), versus wild-type gp91^phox, was used to reconstitute the NADPH oxidase in K562 cells. The mutant construct was made by Quik-Change™ site-directed mutagenesis of gp91^phox using sense primer […] (SEQ ID NO:1) and antisense primer […] (SEQ ID NO:2). The construct was sequenced and subcloned into fresh pcDNA3.1 (−) using NheI and XhoI.

Row | Molecule | effectiveness as conditioning regimen [1] | PMA-stimulated superoxide generation relative to wild-type gp91^phox [2] [fold]
1 | c1cc(CN2CCCNCCNCCCNCC2)ccc1CN1CCCNCCNCCCNCC1 [AMD3100] | not to be sufficiently effective | –
2 | B1 | – | 7
